Measurements taken from patent US11198692B2, “Dihydro-pyrrolo-pyridine derivatives” (Pfizer Inc., priority 2017, dated 2021).

Target: T1, Human M4 receptors (Homo sapiens, UniProt P08173)
T1 construct: expressed in transfected cells
T1 sequence (P08173 1-479): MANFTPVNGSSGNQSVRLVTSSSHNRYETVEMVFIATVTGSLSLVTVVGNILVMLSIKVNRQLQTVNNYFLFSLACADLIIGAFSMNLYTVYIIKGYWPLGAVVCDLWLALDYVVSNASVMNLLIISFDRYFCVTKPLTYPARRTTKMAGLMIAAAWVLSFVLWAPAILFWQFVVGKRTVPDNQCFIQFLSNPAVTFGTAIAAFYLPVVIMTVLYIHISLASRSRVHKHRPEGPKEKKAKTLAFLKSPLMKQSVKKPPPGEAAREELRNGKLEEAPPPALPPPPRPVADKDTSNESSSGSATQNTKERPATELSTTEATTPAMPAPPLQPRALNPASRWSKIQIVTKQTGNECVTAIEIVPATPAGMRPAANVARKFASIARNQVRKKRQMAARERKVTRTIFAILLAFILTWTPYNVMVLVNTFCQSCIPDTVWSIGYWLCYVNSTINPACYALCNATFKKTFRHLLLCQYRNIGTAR
Assay: M4 PAM cAMP assay (GloSensor)
Type: cell-based
Settings: HEK293 GloSensor cells expressing hM4, with EC20 acetylcholine and isoproterenol, geometric mean of 2-4 determinations unless footnoted (b: >=5, c: single); for Emax / EC50 Mean Asymptote Maximum (%): Emax = maximum asymptote of fitted dose response curve; for Emax: read-out: EC50 Mean Asymptote Maximum (%)
Experimental: The M4 cAMP assay was designed to determine the potency and efficacy of muscarinic positive allosteric modulators (PAMs). Human M4 receptors were stably expressed in Human embryonic kidney (HEK293) cells expressed with the Promega GloSensor™ cAMP technology.
HEK293 GloSensor cells expressing hM4 cells were cultured in growth media containing DMEM with 10% FBS, 1% Penicillin/Streptomycin, 500 μg/mL G418, 200 μg/mL Hygomycin B, and 1% Glutamax. When cells had grown to 80%-90% confluency, cells were harvested and seeded at a density of 25,000 cells/40 μL well, in a 384 white walled plates (Becton Dickinson 356661). Plates were incubated at 37 degrees C. and 5% CO2 for use after 24 hours.
Compound Preparation for Activator Screen:
Test compounds were initially prepared as 100% DMSO stock solutions, then transferred and serially diluted in 384-well compound plates (Matrix #4325). Each compound was tested at 10 concentrations in duplicate per experiment. Compound plates are spotted with 0.2 μL/well activator at 400 times the final assay concentration. Positive and negative controls for the compound alone activator response was 10 μM acetylcholine (Sigma # A2661) and DMSO, respectively. EC20 of acetylcholine was also used to define PAM activities.
Promega GloSensor™reagent (Promega # E1291) had previously been aliquotted. For each experiment, a stock solution of GloSensor™ was thawed out and equilibration medium was prepared with 88% CO2-independent media (Invitrogen #18045088), 10% fetal bovine serum and 2% GloSensor™ cAMP Reagent stock solution. Stock solution was mixed. Culture media in cell plates was discarded, then replaced with 40 μL/well pre-warmed equilibration media, then incubated in the dark at room temperature for 2 hours. During the incubation, stimulation media containing agonist and EC20 acetylcholine was prepared. CO2-independent media containing 50 […] Isoproterenol representing an EC80 of b-adrenergic receptor activity (Sigma #16504, 400 times final concentration) and EC20 acetylcholine in 1.25% DMSO was added to all columns of the compound plate, with the exception of column 12 to allow for EC0 control. […] Compounds are now 5 times the final assay concentration. The plate was mixed using a plate agitator. At the end of the 2 hour GloSensor™ incubation, add 10 μL of the CO2-independent media containing agonist, EC20 acetylcholine and isoproterenol to the cell plate. Cell plate was then incubated for 10 minutes at room temperature, and then read using an EnVision plate reader (Perkin Elmer).
Data was exported from the EnVision plate reader. The percent effect for each well was determined using the mean values for the positive and negative controls on each plate for each read, specifically 100*(compound−negative control)/(positive control−negative control). Dose response curves were fitted to the compound percent effect data using a 4-parameter logistic fit model. Data was reported as EC50 and Emax, with the Emax as the maximum asymptote of the fitted dose response curve.

Question: `Cc1nc(C(F)F)c2c(c1C)CN(C(=O)CC1CN(c3ccnc(C(F)F)c3)C1)C2` [Example 39, 1-[4-(difluoromethyl)-6,7-dimethyl-1,3-dihydro-2H-pyrrolo[3,4-c]pyridin-2-yl]-2-{1-[2-(difluoromethyl)pyridin-4-yl]azetidin-3-yl}ethanone] was tested. Which Emax did it give?
Answer: 101%

Question: What about the EC50 of the same compound?
Answer: 32 nM

Question: How did the Emax turn out when `Cc1nc(-c2cnn(C)c2)c2c(c1C)CN(C(=O)CC1CN(c3cccnc3)C1)C2` [Example 13, 1-[6,7-dimethyl-4-(1-methyl-1H-pyrazol-4-yl)-1,3-dihydro-2H-pyrrolo[3,4-c]pyridin-2-yl]-2-[1-(pyridin-3-yl)azetidin-3-yl]ethanone] was run?
Answer: 87.5%

Question: What about the EC50 of the same compound?
Answer: 20.6 nM

Question: What does the source list for `CNc1nc(C)c(C)c2c1CN(C(=O)C[C@H]1C[C@@H]1c1cncnc1)C2` (racemic) [Example 28, 1-[6,7-dimethyl-4-(methylamino)-1,3-dihydro-2H-pyrrolo[3,4-c]pyridin-2-yl]-2-[trans-2-(pyrimidin-5-yl)cyclopropyl]ethanone]?
Answer: Emax: 94.8%; EC50: < 1.7 nM

Question: For `CNc1nc(C)c(C)c2c1CN(C(=O)C[C@@H]1C[C@H]1c1ccc(C)nc1)C2` (racemic) [Example 45, 1-[6,7-dimethyl-4-(methylamino)-1,3-dihydro-2H-pyrrolo[3,4-c]pyridin-2-yl]-2-[trans-2-(6-methylpyridin-3-yl)cyclopropyl]ethanone], which Emax is on record?
Answer: 105%

Question: And the EC50?
Answer: 3.56 nM

Question: Which results are given for `Cc1nc(NCC2CC2)c2c(c1C)CN(C(=O)CC1CN(c3ccncn3)C1)C2` [Example 22, 1-{4-[(cyclopropylmethyl)amino]-6,7-dimethyl-1,3-dihydro-2H-pyrrolo[3,4-c]pyridin-2-yl}-2-[1-(pyrimidin-4-yl)azetidin-3-yl]ethanone]?
Answer: Emax: 99.7%; EC50: 0.626 nM

Question: Which Emax does the source give for `Cc1[nH]c(=O)c2c(c1C)CN(C(=O)CC1CN(c3cccnc3)C1)C2` [Example 21, 6,7-dimethyl-2-{[1-(pyridin-3-yl)azetidin-3-yl]acetyl}-1,2,3,5-tetrahydro-4H-pyrrolo[3,4-c]pyridin-4-one] here?
Answer: 99.7%

Question: And the EC50?
Answer: 8.72 nM

Question: What does the source list for `COc1nc(C)c(C)c2c1CN(C(=O)CC1CN(c3cccnc3)C1)C2` [Example 53, 1-(4-methoxy-6,7-dimethyl-1,3-dihydro-2H-pyrrolo[3,4-c]pyridin-2-yl)-2-[1-(pyridin-3-yl)azetidin-3-yl]ethanone]?
Answer: Emax: 92.1%; EC50: 43.8 nM

Question: For `Cc1nc(CN(C)C)c2c(c1C)CN(C(=O)CC1CN(c3cccnc3)C1)C2` [Example 14, 1-{4-[(dimethylamino)methyl]-6,7-dimethyl-1,3-dihydro-2H-pyrrolo[3,4-c]pyridin-2-yl}-2-[1-(pyridin-3-yl)azetidin-3-yl]ethanone], which Emax is on record?
Answer: 99.4%

Question: And the EC50?
Answer: 18.5 nM

Question: With `CNc1nc(C)c(C)c2c1CN(C(=O)CC1CN(c3ncns3)C1)C2` [Example 2, 1-[6,7-Dimethyl-4-(methylamino)-1,3-dihydro-2H-pyrrolo[3,4-c]pyridin-2-yl]-2-[1-(1,2,4-thiadiazol-5-yl)azetidin-3-yl]ethanone] as the compound, how does the Emax read?
Answer: 96.1%

Question: And the EC50?
Answer: 4.33 nM

Question: Which Emax does the source give for `CNc1nc(C)c(C)c2c1CN(C(=O)CC1CN(c3ccnc(C(F)(F)F)c3)C1)C2C` (racemic) [Example 42, 2-{1-[2-(trifluoromethyl)pyridin-4-yl]azetidin-3-yl}-1-[1,6,7-trimethyl-4-(methylamino)-1,3-dihydro-2H-pyrrolo[3,4-c]pyridin-2-yl]ethanone] here?
Answer: 116%

Question: And the EC50?
Answer: 6.96 nM

Question: `CNc1nc(C)c(C)c2c1CN(C(=O)CC1CN(c3ccc(F)nc3)C1)C2` [Example 51, 1-[6,7-dimethyl-4-(methylamino)-1,3-dihydro-2H-pyrrolo[3,4-c]pyridin-2-yl]-2-[1-(6-fluoropyridin-3-yl)azetidin-3-yl]ethanone] was tested. Which Emax did it give?
Answer: 97.7%

Question: What about the EC50 of the same compound?
Answer: 3.26 nM

Question: `CNc1nc(C)c(C)c2c1CN(C(=O)CC1CN(c3ccnc(OC(F)F)c3)C1)C2C` (single isomer, unassigned) [Example 50, 2-{1-[2-(difluoromethoxy)pyridin-4-yl]azetidin-3-yl}-1-[1,6,7-trimethyl-4-(methylamino)-1,3-dihydro-2H-pyrrolo[3,4-c]pyridin-2-yl]ethanone] was tested. Which “EC50 Mean Asymptote Maximum (%)” value did it give?
Answer: 104^c %

Question: And the EC50?
Answer: 9.88 nM

Question: What does the source list for `CNc1nc(C)c(C)c2c1CN(C(=O)CCc1cn[nH]c1)C2` [Example 38, 1-[6,7-dimethyl-4-(methylamino)-1,3-dihydro-2H-pyrrolo[3,4-c]pyridin-2-yl]-3-(1H-pyrazol-4-yl)propan-1-one]?
Answer: Emax: 102%; EC50: 13.8 nM

Question: Which Emax does the source give for `Cc1nc(N(C)C)c2c(c1C)CN(C(=O)CC1CN(c3cncnc3)C1)C2` [Example 20, 1-[4-(dimethylamino)-6,7-dimethyl-1,3-dihydro-2H-pyrrolo[3,4-c]pyridin-2-yl]-2-[1-(pyrimidin-5-yl)azetidin-3-yl]ethanone] here?
Answer: 95.1%

Question: And the EC50?
Answer: 30.4 nM

Question: `CNc1nc(C)c(C)c2c1CN(C(=O)C[C@@H]1C[C@H]1c1ccc(Cl)nc1)C2` (racemic) [Example 33, 2-[trans-2-(6-chloropyridin-3-yl)cyclopropyl]-1-[6,7-dimethyl-4-(methylamino)-1,3-dihydro-2H-pyrrolo[3,4-c]pyridin-2-yl]ethanone] was tested. Which Emax did it give?
Answer: 128%

Question: What about the EC50 of the same compound?
Answer: 5.32 nM

Question: `CNc1nc(C)c(C)c2c1CN(C(=O)CC1CN(c3nncs3)C1)C2` [Example 37, 1-[6,7-dimethyl-4-(methylamino)-1,3-dihydro-2H-pyrrolo[3,4-c]pyridin-2-yl]-2-[1-(1,3,4-thiadiazol-2-yl)azetidin-3-yl]ethanone] was tested. Which Emax did it give?
Answer: 93.5%

Question: What about the EC50 of the same compound?
Answer: 3.47 nM

Question: For `Cc1nc(OC(F)F)c2c(c1C)CN(C(=O)CC1CN(c3cncnc3)C1)C2` [Example 56, 1-[4-(difluoromethoxy)-6,7-dimethyl-1,3-dihydro-2H-pyrrolo[3,4-c]pyridin-2-yl]-2-[1-(pyrimidin-5-yl)azetidin-3-yl]ethanone], which Emax is on record?
Answer: 109%

Question: What about the EC50 of the same compound?
Answer: 150 nM

Question: `CNc1nc(C)c(C)c2c1CN(C(=O)CC1CN(c3ccnc(C(F)(F)F)c3)C1)C2C` (single isomer, unassigned) [Example 44, 2-{1-[2-(trifluoromethyl)pyridin-4-yl]azetidin-3-yl}-1-[1,6,7-trimethyl-4-(methylamino)-1,3-dihydro-2H-pyrrolo[3,4-c]pyridin-2-yl]ethanone] was tested. Which “EC50 Mean Asymptote Maximum (%)” value did it give?
Answer: 107^c %

Question: And the EC50?
Answer: 1.8 nM

Question: Which results are given for `CNc1nc(C)c(C)c2c1CN(C(=O)C[C@@H]1C[C@H]1c1ccc(F)nc1)C2` (single isomer, unassigned) [Example 15, 1-[6,7-dimethyl-4-(methylamino)-1,3-dihydro-2H-pyrrolo[3,4-c]pyridin-2-yl]-2-[trans-2-(6-fluoropyridin-3-yl)cyclopropyl]ethanone]?
Answer: EC50 Mean Asymptote Maximum (%): 148%; EC50: 795 nM

Question: With `CNc1nc(C)c(C)c2c1CN(C(=O)C[C@@H]1C[C@H]1c1ccc(F)cc1)C2` (single isomer, unassigned) [Example 40, 1-[6,7-dimethyl-4-(methylamino)-1,3-dihydro-2H-pyrrolo[3,4-c]pyridin-2-yl]-2-[trans-2-(4-fluorophenyl)cyclopropyl]ethanone] as the compound, how does the “EC50 Mean Asymptote Maximum (%)” value read?
Answer: 121^c %

Question: What about the EC50 of the same compound?
Answer: 6.77 nM
